Results reported in patent US8278303B2, “Phosphine transition metal complex, process for producing same, and anticancer agent” (Nippon Chemical Industrial Co., Ltd., priority 2006, dated 2012).

Test system: Human acute myelocytic leukemia cells HL-60
Assay: Inhibitory activity on tumor cells, viable cell count by modified Mosmann (MTT) method
Format: cell-based
Conditions: HL-60 cells, 50,000 cells/well, 24 hours culture with compound, then MTT 3 hours; average of at least triplicate; read-out: IC50 (fifty percent inhibitory concentration)
Method: The cells were washed with PBS.
Formazan crystals formed by the enzyme activity of mitochondria in the cells were dissolved in 0.04 mol/HCl/isopropyl alcohol.

CP(c1nc2ccccc2nc1P(C)C(C)(C)C)C(C)(C)C.CP(c1nc2ccccc2nc1P(C)C(C)(C)C)C(C)(C)C.[Au+].[Cl-] (stereo not shown) [Example 1, bis(2,3-bis(t-butylmethylphosphino)quinoxaline)gold (I) chloride]
IC50: 517 nM
